Legend:
Experiment in all cases: competitive isoTOP-ABPP
[1] = target: T1, ABCE1 ATP-binding cassette sub-family E member 1 (Homo sapiens, UniProt P61221); conditions: for R value (DMSO/fragment) for probe 1 labeling / isoTOP-ABPP reactivity ratio at lysine P61221_K478 / isoTOP-ABPP reactivity ratio at lysine P61221_K191: 231 sol; for isoTOP-ABPP ratio, lysine P61221_K191 / isoTOP-ABPP ratio, lysine P61221_K478: 50 uM_231_sol_in vitro
T1 construct: isoTOP-ABPP experiments performed in cell lysates (in vitro); endogenous in cells; host or cells: soluble proteome of human cancer cell lines (MDA-MB-231, Ramos, Jurkat)
Protocol: (§1) In vitro covalent fragment treatment for isoTOP-ABPP. All compounds were made up as solutions in DMSO (100×) and were used at a final concentration of 50 μM for activated esters and 100 μM for guanidinylating agents. For each profiling sample, 0.5 ml of lysate was treated with 5 μl of the 100× compound stock solution or 5 μl of DMSO. Samples were treated with activated esters for
(§2) STP-alkyne labeling and click chemistry. For concentration-dependent reactivity measurements by isoTOP-ABPP, 0.5 ml proteome aliquots were treated at ambient temperature with 1 mM STP-alkyne 1 (5 μl of 100 mM stock in DMSO) and 0.1 mM STP alkyne 1 (5 μl of 10 mM stock in DMSO), respectively. For competitive isoTOP-ABPP, after in vitro fragment treatment (detailed above), the samples were labeled for 1 h at ambient temperature with 0.1 mM STP-alkyne 1 (5 μl of 10 mM stock in DMSO). Samples were conjugated by copper-mediated azide-alkyne cycloaddition (CuAAC) to either the light (1 mM STP-alkyne or fragment treated) or heavy (0.1 mM STP-alkyne or DMSO treated) TEV tags (10 μl of 5 mM stocks in DMSO, final concentration=100 μM) using tris(2-carboxyethyl)phosphine hydrochloride
(§3) R value calculation and processing. The ratios of light and heavy MS1 peaks for each unique peptide were quantified with a CIMAGE software using default parameters (3 MS1 acquisitions per peak and signal to noise threshold set to 2.5). For reactivity measurements by isoTOP-ABPP, the R value was calculated from the ratio of MS1 peak areas, comparing the 1 mM STP alkyne sample (light TEV tag) with the 0.1 mM STP alkyne sample (heavy TEV tag). For competitive isoTOP-ABPP, the R value was calculated from the ratio of MS1 peak areas, comparing the DMSO treated sample (heavy TEV tag) with the compound treated sample (light TEV tag). […] Ratios for unique peptide entries are calculated for each experiment; overlapping peptides with the same modified lysine (for example, different charge states, MudPIT chromatographic steps or tryptic termini) are grouped together and the median ratio is reported as the final ratio (R). The peptide ratios reported by CIMAGE were further filtered to ensure the removal or correction of low-quality ratios in each individual data set. The quality filters applied were the following: removal of half tryptic peptides; for ratios with high standard deviations from the median (90% of the median or above) the lowest ratio was taken instead of the median; removal of peptides with R=20 and only a single MS2 event triggered during the elution of the parent ion; manual annotation of all the peptides with ratios of 20, removing any peptides with low quality elution profiles that remained after the previous curation steps (only done for competitive isoTOP-ABPP).
(§4) Cross-data processing for fragment screening. For compound treated samples, biological replicates of the same condition were averaged, if the standard deviation was below 60% of the mean; otherwise, for lysines with at least one R value <4 for a particular compound, the lowest value of the ratio set was taken. For lysines, where all R values for a particular compound were ≥4, the average was reported. For peptides containing several possible modified lysines, the lysine with the highest number of quantification events was used for analysis and the remaining, redundant peptides were reported as alternative modification sites. Peptides included in the aggregate dataset (those used for further bioinformatics and statistical analyses) were required to have been quantified in 2 experiments for competitive isoTOP-ABPP. Lysines were categorized as liganded, if they had at least one ratio R≥4 (hit fragments). For liganded lysines with R=20 for all liganding events, lysines were required to have been quantified with R=20 in two separate experiments and were further required to have been quantified with R<20 in one additional experiment.

[2] = target: T2, MAP1LC3B Microtubule-associated proteins 1A/1B light chain (Homo sapiens, UniProt Q9GZQ8); format: binding; design: key to isoTOP-ABPP reactivity ratio at lysine Q9GZQ8_K51: R = MS1 peak area ratio, DMSO (heavy) / compound-treated (light); conditions: 50 uM, 231 sol, in vitro; for R value (DMSO/fragment) for probe 1 labeling: Q9GZQ8_K51
T2 construct: isoTOP-ABPP experiments performed in cell lysates (in vitro); endogenous in cells; host or cells: soluble proteome of human cancer cell lines (MDA-MB-231; Ramos and Jurkat also prepared)
Protocol: as §1, §2, §3, §4

[3] = target: T3, ABHD10 Abhydrolase domain-containing protein 10, mitochondrial (Homo sapiens, UniProt Q9NUJ1); format: binding; design: key to isoTOP-ABPP reactivity ratio at lysine Q9NUJ1_K185: R = MS1 peak area ratio, DMSO (heavy) / compound-treated (light); capped at 20; conditions: for R value (DMSO/fragment) for probe 1 labeling: Q9NUJ1_K185; for R value (DMSO/fragment) for probe 1 labeling / isoTOP-ABPP reactivity ratio at lysine Q9NUJ1_K185: 231 sol; for isoTOP-ABPP ratio, lysine Q9NUJ1_K185: 50 uM_231_sol_in vitro
T3 construct: endogenous in cells; host or cells: MDA-MB-231 lysate
T3 sequence (Q9NUJ1 53-306): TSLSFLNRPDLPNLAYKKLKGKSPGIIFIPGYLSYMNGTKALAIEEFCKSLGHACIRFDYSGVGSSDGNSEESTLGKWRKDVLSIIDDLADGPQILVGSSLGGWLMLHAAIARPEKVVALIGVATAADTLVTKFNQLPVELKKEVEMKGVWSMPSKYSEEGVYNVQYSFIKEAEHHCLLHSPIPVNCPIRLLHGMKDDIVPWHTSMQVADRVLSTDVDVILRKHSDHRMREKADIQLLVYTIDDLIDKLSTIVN
Protocol: as §1, §2, §3, §4

[4] = target: T4, NUDT2 Bis(5-nucleosyl)-tetraphosphatase (Homo sapiens, UniProt P50583); format: binding; design: key to isoTOP-ABPP reactivity ratio at lysine P50583_K89: R = MS1 peak area ratio, DMSO (heavy) / compound-treated (light); conditions: for R value (DMSO/fragment) for probe 1 labeling: P50583_K89; for R value (DMSO/fragment) for probe 1 labeling / isoTOP-ABPP reactivity ratio at lysine P50583_K89: 231 sol; for isoTOP-ABPP ratio, lysine P50583_K89: 50 uM_231_sol_in vitro, possible other lysine P50583_K87
T4 construct: isoTOP-ABPP experiments performed in cell lysates (in vitro); endogenous in cells
T4 sequence (P50583 whole entry, the tested form may be a part): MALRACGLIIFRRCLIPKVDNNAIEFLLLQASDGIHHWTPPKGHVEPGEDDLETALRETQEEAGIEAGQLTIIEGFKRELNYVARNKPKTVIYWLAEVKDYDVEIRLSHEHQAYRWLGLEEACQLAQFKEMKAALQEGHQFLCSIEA
Protocol: as §1, §2, §3, §4

[5] = target: T5, ISOC2 Isochorismatase domain-containing protein 2, mitochondrial (Homo sapiens, UniProt Q96AB3); format: binding; design: key to isoTOP-ABPP reactivity ratio at lysine Q96AB3_K178: R = MS1 peak area ratio, DMSO (heavy) / compound-treated (light); capped at 20; conditions: for R value (DMSO/fragment) for probe 1 labeling: Q96AB3_K178; for R value (DMSO/fragment) for probe 1 labeling / isoTOP-ABPP reactivity ratio at lysine Q96AB3_K178: 231 sol; for isoTOP-ABPP ratio, lysine Q96AB3_K178: 50 uM_231_sol_in vitro
T5 construct: isoTOP-ABPP experiments performed in cell lysates (in vitro); endogenous in cells; host or cells: soluble proteome of human cancer cell lines (MDA-MB-231; Ramos and Jurkat also prepared)
T5 sequence (Q96AB3 1-205): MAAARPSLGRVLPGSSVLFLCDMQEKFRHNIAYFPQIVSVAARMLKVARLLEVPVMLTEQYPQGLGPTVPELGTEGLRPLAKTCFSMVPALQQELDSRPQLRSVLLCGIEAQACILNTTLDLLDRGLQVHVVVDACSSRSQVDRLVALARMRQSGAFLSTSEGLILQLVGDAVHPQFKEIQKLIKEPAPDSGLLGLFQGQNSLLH
Protocol: as §1, §2, §3, §4

Row | Compound | R value (DMSO/fragment) for probe 1 labeling ([1]; P61221_K191, 50 uM, in vitro) | R value (DMSO/fragment) for probe 1 labeling ([1]; P61221_K478, 50 uM, in vitro) | R value (DMSO/fragment) for probe 1 labeling [2] | R value (DMSO/fragment) for probe 1 labeling ([3]; 50 uM, in vitro) | R value (DMSO/fragment) for probe 1 labeling ([4]; 50 uM, in vitro) | R value (DMSO/fragment) for probe 1 labeling ([5]; 50 uM, in vitro) | isoTOP-ABPP reactivity ratio at lysine P61221_K478 ([1]; 50 uM, in vitro) | isoTOP-ABPP reactivity ratio at lysine Q9GZQ8_K51 [2] | isoTOP-ABPP reactivity ratio at lysine P50583_K89 ([4]; 50 uM, in vitro) | also measured
1 | O=C(CCc1cn(-c2ccccc2)nc1-c1ccccc1)Oc1c(F)c(F)c(F)c(F)c1F [fragment 19, Pentafluorophenyl 3-(1,3-diphenyl-1H-pyrazol-4-yl)propanoate] | 0.9 | 1.1 | 1.0 | 1.2 | 1.0 | 1.2 | – | – | – | –
2 | O=C(Oc1c(F)c(F)c(F)c(F)c1F)C(c1ccccc1)c1ccccc1 [fragment 20, Pentafluorophenyl 2,2-diphenylacetate] | 0.9 | 1.2 | 0.9 | 1.1 | 0.9 | 0.9 | – | – | – | –
3 | O=C(Oc1c(F)c(F)c(F)c(F)c1F)c1cc(C(F)(F)F)cc(C(F)(F)F)c1 [fragment 21, Pentafluorophenyl 3,5-bis(trifluoromethyl)benzoate] | 1.0 | – | – | 4.7 | 0.9 | 1.0 | – | – | – | –
4 | Cn1cc(CC(=O)Oc2c(F)c(F)c(F)c(F)c2F)c2ccccc21 [fragment 22, Pentafluorophenyl 2-(1-methyl-1H-indol-3-yl)acetate] | 1.5 | 1.6 | 1.2 | 1.5 | 0.9 | 1.0 | – | – | – | –
5 | COc1cc(CCC(=O)Oc2c(F)c(F)c(F)c(F)c2F)cc(OC)c1OC [fragment 23, Pentafluorophenyl 3-(3,4,5-trimethoxyphenyl)propanoate] | 1.3 | 1.5 | 0.7 | 2.0 | 1.0 | 1.2 | – | – | – | –
6 | O=C(Oc1c(F)c(F)c(F)c(F)c1F)C1CCN(C(=O)OCc2ccccc2)CC1 [fragment 24, 1-Benzyl 4-(pentafluorophenyl) piperidine-1,4-dicarboxylate] | – | – | – | – | – | – | 1.4 | 1.1 | 0.9 | –
7 | O=C(Oc1c(F)c(F)c(F)c(F)c1F)c1ccc2ccccc2n1 [fragment 25, Pentafluorophenyl quinoline-2-carboxylate] | – | – | – | – | – | – | 1.5 | 0.9 | 1.0 | isoTOP-ABPP reactivity ratio at lysine P61221_K191 ([1]; 50 uM, in vitro): 1.7; isoTOP-ABPP reactivity ratio at lysine Q9NUJ1_K185 ([3]; 50 uM, in vitro): 1.5; isoTOP-ABPP reactivity ratio at lysine Q96AB3_K178 ([5]; 50 uM, in vitro): 1.4
8 | O=C(CCc1coc2cc(F)ccc2c1=O)Oc1c(F)c(F)c(F)c(F)c1F [fragment 26, Pentafluorophenyl 3-(7-fluoro-4-oxo-4H-chromen-3-yl)propanoate] | – | – | – | – | – | – | 1.3 | 1.2 | 0.9 | isoTOP-ABPP reactivity ratio at lysine P61221_K191 ([1]; 50 uM, in vitro): 1.4; isoTOP-ABPP reactivity ratio at lysine Q9NUJ1_K185 ([3]; 50 uM, in vitro): 1.5
9 | O=C(CN1C(=O)c2ccccc2C1=O)Oc1c(F)c(F)c(F)c(F)c1F [fragment 27, Pentafluorophenyl 2-(1,3-dioxoisoindolin-2-yl)acetate] | – | – | – | – | – | – | 2.1 | 1.0 | 0.7 | isoTOP-ABPP reactivity ratio at lysine Q9NUJ1_K185 ([3]; 50 uM, in vitro): 1.9; isoTOP-ABPP reactivity ratio at lysine Q96AB3_K178 ([5]; 50 uM, in vitro): 1.3
10 | CC(=O)Oc1ccc([N+](=O)[O-])cc1[N+](=O)[O-] [fragment 43, 2,4-Dinitrophenyl acetate] | – | – | – | – | – | – | – | – | – | isoTOP-ABPP ratio (R) at liganded lysine P61221_K191 ([1]; 50 uM, in vitro, sol, 231): 1.3; isoTOP-ABPP ratio (R) at liganded lysine P61221_K478 ([1]; 50 uM, in vitro, sol, 231): 1.4; isoTOP-ABPP ratio (R) at liganded lysine Q9NUJ1_K185 ([3]; 50 uM, in vitro, sol, 231): 1.3; isoTOP-ABPP ratio (R) at liganded lysine P50583_K89 ([4]; 50 uM, in vitro, sol, 231): 1.1; isoTOP-ABPP ratio (R) at liganded lysine Q96AB3_K178 ([5]; 50 uM, in vitro, sol, 231): 1.1
11 | O=C(ON1C(=O)CCC1=O)c1cc(C(F)(F)F)cc(C(F)(F)F)c1 [fragment 46, 3,5-Bis(trifluoromethyl)benzoic acid NHS ester] | – | – | – | – | – | – | – | – | – | isoTOP-ABPP ratio, lysine P61221_K191 [1]: 20.0; isoTOP-ABPP ratio, lysine P61221_K478 [1]: 11.4; isoTOP-ABPP ratio, lysine Q9NUJ1_K185 [3]: 1.2; isoTOP-ABPP ratio, lysine P50583_K89 [4]: 1.1; isoTOP-ABPP ratio, lysine Q96AB3_K178 [5]: 1.5
12 | NC(=O)c1cc(C(F)(F)F)cc(C(F)(F)F)c1 [fragment 51, reference compound] | – | – | – | – | – | – | – | – | – | isoTOP-ABPP ratio, lysine P61221_K191 [1]: 1.0; isoTOP-ABPP ratio, lysine P61221_K478 [1]: 0.9; isoTOP-ABPP ratio, lysine Q9NUJ1_K185 [3]: 1.0; isoTOP-ABPP ratio, lysine P50583_K89 [4]: 0.9; isoTOP-ABPP ratio, lysine Q96AB3_K178 [5]: 0.9
